Marks after values point to notes of the source that are not given here. No end group written: not given here.
How the values were obtained:
CXCL12WT = CXCL12WT (Homo sapiens, UniProt P48061); conditions: ΔG = −RT ln Kd @ 298 K, calculated from Veldkamp et al.; cited from earlier work
CXCL12_1 = CXCL12_1 (Homo sapiens, UniProt P48061, I79C/L76C); test: 2D 1H-15N HSQC NMR titration of CXCR4 peptides into CXCL12_1; assay type: binding; conditions: ΔG = −RT ln Kd @ 298 K
CXCL12_2 = CXCL12_2 (Homo sapiens, UniProt P48061, A86C/L57C); test: 2D 1H-15N HSQC NMR titration of CXCR4 peptides into CXCL12_2; assay type: binding; conditions: ΔG = −RT ln Kd @ 298 K
[1] = biological target: CXCL12WT self-association; conditions: in 100 mM sodium phosphate; cited from earlier work

ΔG (CXCL12_1) | ΔG (CXCL12_2) | Substance | ΔG (CXCL12WT) | Kd of self-association [1]
-7.43 kcal/mol | -8.24 kcal/mol | GMMEGISIYTSDNYTEEMGSGDYDSMKEPCFREENANFNK [CXCR4_1–38] | −7.29 ^* kcal mol^−1 | –
– | – | CXCL12WT: wild type chemokine CXCL12 (stromal cell-derived factor-1/SDF-1) | – | 140 µM
